Article PMC4735555, “Crystal structure of the N-myristoylated lipopeptide-bound MHC class I complex” (Nature Communications, 2016)

Tests used:
[1] = test system: 2N5.1 (plate-coated Mamu-B*098); experiment: T-cell assay with plate-coated Mamu-B*098, IFN-γ release by 2N5.1; assay type: cell-based, rhesus macaque; details: 10 μg MHC protein, 1 μg lipopeptide loaded overnight 37 °C; 5 × 10^4 T cells per well, 24 h; IFN-γ ELISA
From the text: (§1) Single-chain MHC proteins in which β2m was linked via a Gly-Ser linker (GGGGSGGSGSGGGSS) to the ectodomain of either Mamu-B*098 or Mamu-A*02, followed by a biotinylation sequence peptide (LHHILDAQKMVWNHR), were also expressed in E. coli and were purified in a similar manner to the trimer complex of Mamu-B*098, β2m and C14nef5. The β2m-linked Mamu-B*098 protein was refolded without C14nef5, whereas the β2m-linked Mamu-A*02 protein was refolded in the presence of the YY9 peptide (YTSGPGIRY). These recombinant proteins (3 mg) were biotinylated by being incubated for 12 h at 20 °C with 2 μg of BirA enzyme (Sigma-Aldrich, St Louis, MO) in a biotinylation buffer containing 100 mM Tris-HCl pH 8.0, 5 mM MgCl2, 4.5 mM ATP and 4 mM D-biotin, and were purified by size-exclusion chromatography.
Streptavidin-coated 96-well plates (Thermo Scientific, Hudson, NH) were overlaid with 10 μg of the biotinylated β2m-linked Mamu-B*098 and Mamu-A*02 proteins, and lipopeptide Ags (1 μg) were loaded by an overnight incubation at 37 °C. The wells were then washed extensively and T cells (5 × 10^4 per well) were added. After a 24-h incubation at 37 °C, aliquots of the culture supernatants were collected and the amount of IFN-γ released into the medium was measured by a human/monkey IFN-γ enzyme-linked immunosorbent assay kit (Mabtech, Nacka Strand, Sweden).

2N5.1 TCR = experiment: SPR binding of soluble 2N5.1 TCR to antigen-loaded Mamu-B*098; set-up: species or system rhesus macaque; details: in words; Biacore 3000, 30 °C; soluble 2N5.1 TCR αβ dimer; lipopeptide-loaded Mamu-B*098 immobilized; pH 7.5
From the text: as §1
TCR dimers were generated by the disulfide-linked TCR method. […]
The binding of ligands to MHC class I molecules was analysed using the Octet RED96 system equipped with a streptavidin-conjugated biosensor (Pall ForteBio, Menlo Park, CA) according to the manufacturer's instructions. […] After reference subtraction, binding signals were analysed using the BIAevaluation 3.1 software. […]

[2] = test system: 2N5.1 (Mamu-B*098 Cys167 to Ser mutant); experiment: Presentation of C14nef5 to 2N5.1 by the cysteine to serine (position 167) mutant of Mamu-B*098; assay type: cell-based, rhesus macaque; details: data not shown
2N5.1 = details: cited from earlier work
From the text: For example, human and simian immunodeficiency viruses (HIV and SIV) borrow host-derived N-myristoyltransferase and its substrate myristoyl-CoA, to couple a 14-carbon saturated fatty acid (myristic acid) to the N-terminal glycine residue of the Nef protein. […] To obtain an insight into its molecular identity, we generated several hundred monoclonal antibodies that recognized rhesus PBMCs and tested their abilities to block the presentation of C14nef5 to 2N5.1. […] The myristoyl group of the lipopeptide adopted a U-shaped configuration and fit perfectly with the extended B pocket. Furthermore, inter- and intramolecular VDW forces established throughout the acyl chain synergistically reinforced its stable binding to the B pocket. These structural f ... || (+ 1 further places)

C14-Gly-Gly-Ala-Ile-Ser [C14nef5, N-myristoylated 5-mer peptide (C14-Gly-Gly-Ala-Ile-Ser; C14nef5) derived from the SIV Nef protein]
IFN-γ response of 2N5.1 to plate-coated Mamu-B*098 with lipopeptide Ag [1]: sufficient for stimulating 2N5.1 to produce IFN-γ
interaction of 2N5.1 TCR with lipopeptide-loaded Mamu-B*098 (SPR) (2N5.1 TCR): high-affinity interaction
effect of Cys167 to Ser mutation on ability of Mamu-B*098 to present C14nef5 to 2N5.1 [2]: affected neither the overall secondary structure nor the ability of Mamu-B*098 to present C14nef5 to 2N5.1
antigenic activity, C14nef5 versus its Ser to Thr mutant (2N5.1): virtually identical antigenic activities
recognition by rhesus macaque CD8+ CTL line 2N5.1 (2N5.1): specifically recognizes
requirement of PBMCs for recognition by 2N5.1 (2N5.1; irradiated PBMCs): requires the presence of irradiated peripheral blood mononuclear cells (PBMCs)
